The values below come from patent US7238781B2, “Plant defensin polynucleotides and methods of use thereof” (E. I. DuPont de Nemours and Company, priority 1999, dated 2007).

Holding throughout (type): cell-based
The test system of one assay is Neurospora crassa. The assay can be described thus: Bioactivity of Pps-AMP1 mature peptide against fungal pathogens (spore suspension in 1/2 strength PDB). As to conditions: concentration at which 90% of fungal growth is inhibited, 48 hour incubation at 28° C. The method, then: (§1) The purified refolded and lyophilized Pps-AMP1 mature peptide was resuspended in dH2O to a final concentration of about 4 μg/μl. 12 μg of purified Pps-AMP1 mature peptide was added to 200 μl of ½ strength potato dextrose broth (PDB) containing a spore suspension of either Fusarium verticilloides, Colletotrichum graminaria, or Neurospora crassa containing 2500 spores/ml. […] A 0.5× dilution series for Pps-AMP1 mature peptide from 10 μM through to about 0.005 μM was prepared by removing 100 μl of the 10 μM stock and adding it to 100 μl of spore suspension (2500 spores/ml), mixing thoroughly to achieve a 5 μM Pps-AMP1 mature peptide concentration, transferring 100 μl of the 5 μM suspension to a fresh 100 μl spore suspension etc., until about 0.005 μM was reached. Two replicates per pathogen were performed. […] Inhibition of fungal growth was defined as little to no spore germination without detectable hyphae growth. The bioactivity of Pps-AMP1 mature peptide against these fungal pathogens is shown below. The IC90 concentration represents that concentration at which 90% of fungal growth is inhibited.

Assay [1] concerns Colletotrichum graminaria. The assay is described as above. As to conditions: concentration at which 90% of fungal growth is inhibited, 48 hour incubation at 28° C. The method, then:
as §1

Another assay has as its system Fusarium verticilloides. The description is as above. As to conditions: concentration at which 90% of fungal growth is inhibited, 48 hour incubation at 28° C. On the procedure: as §1
A further assay has as its system Sclerotinia sclerotiorum. The assay can be described thus: In vitro 96 well microtiter plate assay, inhibition of hyphal growth. As to conditions: 24 hours at 22° C., 2 replicates. On the procedure: An in vitro assay was also performed in a 96 well microtiter plate to determine the activity of Pps-AMP1 mature peptide against Sclerotinia sclerotiorum. Test inoculum was started by inoculating ½ strength potato dextrose broth (PDB) liquid with a sterile loop of hyphae from a Sclerotinia culture propagated on ⅛ strength potato dextrose agar (PDA) plate. Liquid inoculum was held at room temperature (22° C.), without shaking, in the dark for 4 days, to allow sufficient growth of hyphae. The resulting suspension was macerated using a polytron tissue grinder. The sample was then diluted to the point of invisibility to the naked eye (observation under microscopy at 40× indicated the presence of hyphal fragments). […] […] Sclerotinia hyphae only, or ½ strength PDB only, were included as negative controls.

For orientation: IC90 means the concentration needed for an effect of 90%. Low readings indicate an effect from little substance, high ones a need for much substance. As for “Pps-AMP1 mature peptide: mature peptide of Picramnia pentandra defensin clone pps.pk0010.g2, expressed in E. coli, refolded and purified (QRLCERASLTWSGNCGNTAHCDNQCRSWEHAQHGACHVRGGKHMCFCYFNC)”, the IC90 in the assay on Neurospora crassa was determined as 50 nM; in assay [1], 2500 nM; in the assay with Fusarium verticilloides, 600 nM. For the same compound, the “inhibition of fungal growth” value in the assay on Sclerotinia sclerotiorum (2.5 μM - 0.005 μM) is recorded as 2.5 μM - 0.005 μM no inhibition of fungal growth; with Sclerotinia sclerotiorum (5 μM) it was 5 μM - moderate inhibiton of fungal growth; with Sclerotinia sclerotiorum (10 μM), 10 μM - total inhibition of fungal growth.

As to `COC(=O)Nc1nc2ccccc2[nH]1` [MBC standard, methyl 2-benzimidazolecarbamate, reference compound], the “inhibition of fungal growth” value with Sclerotinia sclerotiorum (0.023 μM) is on record as 0.023 μM - moderate inhibition of fungal growth; with Sclerotinia sclerotiorum (17–0.07 μM), 17–0.07 μM - total inhibition of fungal growth.
